This is an account of results in patent US20100331311A1 (priority 2005, published 2010).

The conditions of data set [1]: mouse, in vivo; cited from earlier work.
For data set [2], the system named is retinal ganglion cells (RGCs). The class given is in vivo, Sprague-Dawley rats.
The subject of data set [3] is glaucomatous and normal (contralateral) eyes. Also on record: species or system Brown Norway rats. Conditions: rat, in vivo, 3.5 mg/kg. How it is done: IOP from glaucomatous and normal (contralateral) eyes was measured in awake animals using a calibrated tonometer (TonoPen XL, Medtronic Solan, Jacksonville, Fla.). Ten to fifteen consecutive readings per eye were taken and averaged to obtain an accurate daily IOP measurement. IOP was measured daily for two weeks after ocular hypertension surgery, and then every other day for the entire duration of the experiment. The mean IOP (mm Hg±S.E.M.) per eye was the average of all IOP readings since the onset of pressure elevation. The maximum IOP measured in each individual eye, glaucomatous or normal contralateral eye, was defined as the peak IOP and this value was used to estimate the mean peak IOP for each group. The delta positive integral IOP was calculated as the area under the IOP curve in the glaucomatous eye minus that of the fellow normal eye from ocular hypertension surgery to euthanasia. Integral IOP represents the total, cumulative IOP exposure throughout the entire experiment.
For this purpose, Applicant measured intraocular pressure every other day for entire duration of daily treatment with galantamine up to 35 days after ocular hypertension (OHT) surgery.

Data set [4] has as its system retinal ganglion cells (RGCs). Set-up: species or system Brown Norway rats. The note with it: rat, in vivo, ip, 3.5 mg/kg.
Method: Two weeks after ocular hypertension surgery, animals were subjected to daily treatment with galantamine ˜3.5 mg/kg body weight, intraperitoneal administration (i.p.). Analysis of RGC survival was carried out at 5 weeks after ocular hypertension surgery.
Therefore, two weeks after ocular hypertension surgery, animals received daily intraperitoneal (i.p) injections of galantamine at a dose of 3.5 mg/kg b.w. as shown in FIG. 2.
All surgeries were performed in adult male Brown Norway rats, retired breeders, between 10-12 months of age (300-400 g), under general anesthesia by intraperitoneal injection of 1 ml/kg b.w. standard rat cocktail consisting of ketamine (100 mg/ml), xylazine (20 mg/ml) and acepromazine (10 mg/ml).
Seven days after DiI application, the time required for labeling the entire RGC population, animals were subjected to ocular hypertension surgery as described below. […]
Analysis of RGC survival was carried out at 5 weeks after ocular hypertension surgery. Quantification of RGC bodies or axons was always performed in duplicate and in a masked fashion. […] Under fluorescence microscopy, DiI-labeled or FluoroGold-labeled neurons were counted in 12 standard retinal areas as previously described (Cheng et al. 2002; Sapieha et al. 2003).
The conditions of data set [5]: human, in vivo; cited from earlier work.
Data set [6] concerns the target alpha-7 nicotinic acetylcholine receptor (Rattus norvegicus, UniProt Q05941). Also on record: species or system Sprague-Dawley rats. The note with it: in vivo.

alpha-7 nicotinic acetylcholine receptor, sequence (Q05941 23-502 limits assumed): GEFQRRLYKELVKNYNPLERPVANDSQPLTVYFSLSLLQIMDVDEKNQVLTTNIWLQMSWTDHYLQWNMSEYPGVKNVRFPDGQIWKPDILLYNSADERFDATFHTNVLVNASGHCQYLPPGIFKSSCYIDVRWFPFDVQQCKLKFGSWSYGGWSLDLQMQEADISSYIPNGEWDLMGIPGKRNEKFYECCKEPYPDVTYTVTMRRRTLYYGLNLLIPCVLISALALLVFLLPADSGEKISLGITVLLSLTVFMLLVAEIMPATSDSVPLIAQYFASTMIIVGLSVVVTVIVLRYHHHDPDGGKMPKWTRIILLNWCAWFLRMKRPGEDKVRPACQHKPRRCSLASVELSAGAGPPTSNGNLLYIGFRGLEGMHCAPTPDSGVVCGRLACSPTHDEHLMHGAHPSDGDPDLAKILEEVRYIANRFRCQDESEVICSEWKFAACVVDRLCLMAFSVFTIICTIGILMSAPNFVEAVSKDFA

On to `COc1ccc2c3c1O[C@H]1C[C@@H](O)C=C[C@@]31CCN(C)C2` [Galantamine, galantamine], for which, in data set [1], the brain levels is 200 to 1000 nM. In data set [2] (rat, in vivo), the RGCs remaining alive is reported as around 30% and the “survival of axotomized RGCs” value was above 75%. Moreover, in data set [3], the “Integral IOP” value is reported as 321 ± 10 mm Hg, the “Mean IOP Control” value is recorded as 23.7 ± 0.2 mm Hg and the “Mean IOP Glaucoma” value is given as 40.7 ± 0.8 mm Hg. For the same compound, the RGCs preserved in data set [4] was determined as 90%. Also, the “estimated brain concentration of functionally available galantamine” value in data set [5] is 500 to 1200 nM.
Consider Alpha-bungarotoxin, for which, in data set [6], the “block of the total neuroprotective effect of galantamine” value was 10-15%.
Take `COc1cc2c(cc1OC)C(=O)C(CC1CCN(Cc3ccccc3)CC1)C2` (stereo not shown) [Donepezil, donepezil]: the “neuroprotection of RGCs after axotomy, galantamine vs donepezil (in words)” value in data set [2] (3.5 mg/kg b.w., single intraocular injection, 1 week after optic nerve axotomy) is “neuroprotective after axotomy”.
